The values below come from US20120214798A1, “Novel Ethanediamone Hepcidine Antagonists” (VIFOR (INTERNATIONAL) AG, priority 2009, published 2012).

Molecules are shown by their SMILES.

For the test, the target named is T1, human ferroportin (Homo sapiens, UniProt Q9NP59).
T1 construct: expressed in transfected cells
T1 sequence (Q9NP59 1-571): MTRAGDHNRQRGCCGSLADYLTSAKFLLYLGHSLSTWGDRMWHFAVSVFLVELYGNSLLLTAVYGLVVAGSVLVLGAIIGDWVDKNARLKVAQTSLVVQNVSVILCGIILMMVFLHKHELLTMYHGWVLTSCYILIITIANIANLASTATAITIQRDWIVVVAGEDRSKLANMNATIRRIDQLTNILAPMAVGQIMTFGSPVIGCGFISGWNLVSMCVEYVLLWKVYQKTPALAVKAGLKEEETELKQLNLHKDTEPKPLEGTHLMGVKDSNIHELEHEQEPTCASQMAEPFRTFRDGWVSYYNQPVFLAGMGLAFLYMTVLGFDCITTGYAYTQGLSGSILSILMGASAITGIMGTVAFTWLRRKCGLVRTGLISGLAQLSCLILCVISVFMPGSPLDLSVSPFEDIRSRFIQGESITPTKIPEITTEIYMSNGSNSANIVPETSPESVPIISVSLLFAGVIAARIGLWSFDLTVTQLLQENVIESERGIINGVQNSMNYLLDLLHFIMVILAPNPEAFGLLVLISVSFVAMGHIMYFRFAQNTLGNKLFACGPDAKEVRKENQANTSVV
In words: Ferroportin internalization assay (inhibition of hepcidin-induced internalization of Fpn, MDCK-FPN-HaloTag cells). It is filed as cell-based. The conditions noted are these: 100 nM hepcidin. As to the method:
The hepcidin-antagonistic action of the ethanediamine compounds of the present invention was determined by means of the “ferroportin internalization assay” described in the following.
Organic compounds of low molecular weight which counteract the biological actions of hepcidin on its receptor, the iron exporter ferroportin (Fpn), were identified on the basis of their ability to inhibit hepcidin-induced internalization of Fpn in living cells. For this purpose, a stable cell line (Madin-Darby canine kidney, MDCK) was produced which constitutively expresses human ferroportin fused recombinantly at its C terminus with a fluorescent reporter protein (HaloTag®, Promega Corp.). The internalization of Fpn was monitored by labelling these cells with fluorescent ligands (HaloTag®-TMR, tetramethylrhodamine) which join covalently on to the HaloTag reporter gene fused with the Fpn. […] Optimized image analysis algorithms were used to ascertain the cell surface and to quantify the corresponding membrane fluorescence associated with the Fpn-HaloTag fusion protein. This assay allows a quantitative image-based analysis in order to quickly evaluate compounds which can block hepcidin-induced internalization of Fpn. This assay is a direct in vitro pendant of the in vivo action mechanism proposed for medicament candidates and is therefore suitable as an initial assay with a high throughput for identifying compounds which counteract the action of hepcidin on its receptor ferroportin.
• 7,500 cells per well (MDCK-FPN-HaloTag) were transinoculated in 50 μl of DMEM medium (Dulbeccos Modified Eagle Medium with 10% foetal bovine serum (FBS), which contained 1% penicillin, 1% streptomycin and 450 μg/ml of G-418) in microtitre plates with 384 wells (384 Cell carrier plates, Perkin Elmer, cat. no. 6007430), followed by incubation overnight at 37° C./5% CO2. • The volume of the medium was reduced to 10 μl, and 10 μl of 5 μM HaloTag-TMR ligands (Promega, cat. no. G 8251) were added in DMEM medium in order to stain the Fpn-HaloTag fusion protein. • 15 min incubation at 37° C./5% CO2 • The HaloTag-TMR ligand was removed and the cells were washed with fresh DMEM medium and the volume was reduced to 20 μl of DMEM medium. • 3 μl per well of a solution of the test compound (dissolved DMSO) were added ([…]). • 7 μl of […] hepcidin (Peptides International, cat. no. PLP-4392-s, 100 μM stock solution diluted in water in DMEM medium) were added per well up to a final hepcidin concentration of 100 nM. • The cells were incubated overnight at 37° C./5% CO2. • The cells were fixed by adding paraformaldehyde (PFA, Electron Microscopy Sciences, cat. no. 15710-S) directly to the cells up to a final concentration of 4%, followed by incubation at room temperature for 15-20 minutes. • The PFA solution was removed and the cells were washed with PBS (phosphate-buffered saline solution), in each case 30 μl remaining in the plate. • 20 μl of Draq5 (Biostatus, cat. no. DR 51000) were added up to a final concentration of 2.5 μM in order to stain the cell nuclei, and the plates were sealed with a foil plate seal. • The plates were analysed with the Opera Plate Imager (Opera Confocal Plate Imager, Perkin Elmer) with 7 images per well; 440 ms exposure time per image, […] focal point height.

Consider `c1ccc(C(CN2CCC(N3CCCCC3)CC2)NCCN2CCOCC2)cc1` (stereo not drawn) [Example 5], for which the “I [%] (median inhibition [%] at 10 μm substance conc.)” value is listed as <50%.
Then `Fc1ccc(C(CN2CCN(c3cnccn3)CC2)NCc2ccccn2)cc1` (stereo not drawn) [Example 1, [1-(4-Fluoro-phenyl)-2-(2,3,5,6-tetrahydro-[1,2′]bipyrazinyl-4-yl)-ethyl]-pyridin-2-ylmethyl-amine], with >50%; and `O=C(C1CCCO1)N1CCN(CC(NCc2ccccn2)c2ccccc2)CC1` (stereo not drawn) [Example 3, (4-{2-Phenyl-2-[(pyridin-2-ylmethyl)-amino]-ethyl}-piperazin-1-yl)-(tetrahydro-furan-2-yl)-methanone], with <50%; and `COCCN1CCN(C(CN2CCC(N3CCCCC3)CC2)c2ccccc2)CC1` (stereo not drawn) [Example 4], with >50%.
To `COc1ccc(CNC(CN2CCC(N3CCCCC3)CC2)c2ccccc2)cc1` (stereo not drawn) [Example 6] belongs <50%; to `O=C(C1CCCO1)N1CCN(CC(NCc2ccccn2)c2ccc(F)cc2)CC1` (stereo not drawn) [Example 2, (4-{2-(4-Fluoro-phenyl)-2-[(pyridin-2-ylmethyl)-amino]-ethyl}-piperazin-1-yl)-(tetrahydro-furan-2-yl)-methanone], <50%.
